In patent publication US12544395B2, “Combination compositions comprising a beta-lactamase inhibitor and uses thereof” (priority 2018, dated 2026):
≈ marks a conversion by molar mass, not a printed value. Read-outs that look alike come from different tables or passages of the source.

How the values were obtained:
Assay type in all cases: cell-based
K. pneumoniae KP 4 = experiment: Broth microdilution MIC (strain enzymes: SHV-2a, SHV-5, TEM-1); details: Klebsiella pneumoniae, KP4, alone
E. coli SI-V502 = experiment: Broth microdilution MIC (strain enzymes: TEM-29, CTX-M15); details: Escherichia coli, SIV502, alone
K. pneumoniae 329633 = experiment: Broth microdilution MIC (strain enzymes: SHV-5, TEM-1); details: Klebsiella pneumoniae, 329633, alone
E. coli 1924 = experiment: Broth microdilution MIC (strain enzymes: TEM-12); details: Escherichia coli, 1924, alone
K. pneumoniae KP 8 = experiment: Broth microdilution MIC (strain enzymes: TEM-10, TEM-1, CTX-M15); details: Klebsiella pneumoniae, KP8, alone
E. coli SI-PBLII = experiment: Broth microdilution MIC (strain enzymes: CTX-M2, TEM-1); details: Escherichia coli, alone
E. coli ESBL 5 = experiment: Broth microdilution MIC (strain enzymes: CTX-M15, TEM-1); details: Escherichia coli, ESBL5, alone
E. coli SI-LP377 = experiment: microbe, parasite or virus in culture; details: Escherichia coli
E. coli 25922 = experiment: Broth microdilution MIC (strain enzymes: None detected); details: Escherichia coli, 25922, alone
K. pneumoniae 11/23 LF#2 = experiment: microbe, parasite or virus in culture; details: Klebsiella pneumoniae
K. pneumoniae KI (KCl) = experiment: Broth microdilution MIC (strain enzymes: TEM-10); details: Klebsiella pneumoniae, alone
E. coli 2806 = experiment: Broth microdilution MIC (strain enzymes: SHV-12, TEM-1); details: Escherichia coli, 2806, alone
E. coli Si-FDL-GES = experiment: microbe, parasite or virus in culture; details: Escherichia coli
E. coli 3174 = experiment: Broth microdilution MIC (strain enzymes: TEM-1, CTXM-15); details: Escherichia coli, 3174, alone
K. pneumoniae ESBL 8 #2 = experiment: Broth microdilution MIC (strain enzymes: SHV-12, TEM-1); details: Klebsiella pneumoniae, alone
E. coli SI-M004 = experiment: Broth microdilution MIC (strain enzymes: SHV-2, GES-12); details: Escherichia coli, SIM004, alone
K. pneumoniae ESBL 8 #1 = experiment: Broth microdilution MIC (strain enzymes: TEM-1, SHV-12); details: Klebsiella pneumoniae, alone
K. pneumoniae ESBL 10 = experiment: Broth microdilution MIC (strain enzymes: SHV-12, TEM-1); details: Klebsiella pneumoniae, ESBL10, alone
E. coli SI-NO36 = experiment: Broth microdilution MIC (strain enzymes: SHV-11, TEM-1); details: Escherichia coli, SINO36, alone
K. pneumoniae ESBL 7 #2 = experiment: Broth microdilution MIC (strain enzymes: SHV-12, CTX-M15, TEM-1); details: Klebsiella pneumoniae, alone
K. pneumoniae BAA 1705 = experiment: Broth microdilution MIC (strain KPC-producing); details: Klebsiella pneumoniae, BAA1705, alone
E. coli ESBL 4 = experiment: Broth microdilution MIC (strain enzymes: CTX-M15, TEM-1); details: Escherichia coli, ESBL4, alone
E. coli SI-AIRT-4 = experiment: Broth microdilution MIC (strain enzymes: TEM-1); details: Escherichia coli, SIAIRT4, alone
K. pneumoniae 3151 = experiment: Broth microdilution MIC (strain enzymes: SHV-12, TEM-1); details: Klebsiella pneumoniae, 3151, alone
E. coli ESBL 2 = experiment: Broth microdilution MIC (strain enzymes: TEM-1); details: Escherichia coli, ESBL2, alone
K. pneumoniae 115468 = experiment: Broth microdilution MIC (strain enzymes: TEM-1); details: Klebsiella pneumoniae, 115468, alone
[1] = test system: panel of ESBL-producing Enterobacteriaceae (40 strains); experiment: Broth microdilution MIC50/MIC90 summary over the panel
K. pneumoniae KPN 508 = experiment: Broth microdilution MIC (strain enzymes: SHV-7, TEM-1); details: Klebsiella pneumoniae, KPN508, alone
E. coli 2150 = experiment: Broth microdilution MIC (strain enzymes: SHV-3, TEM-1); details: Escherichia coli, 2150, alone
K. pneumoniae 319478 = experiment: Broth microdilution MIC (strain enzymes: SHV-12, CTX-M3 and TEM-1); details: Klebsiella pneumoniae, 319478, alone
K. pneumoniae KP 3 = experiment: Broth microdilution MIC (strain enzymes: SHV-1, TEM-1); details: Klebsiella pneumoniae, KP3, alone
K. pneumoniae SI-KP NO30 = experiment: Broth microdilution MIC (strain enzymes: TEM-26b, SHV-60, SHV-26); details: Klebsiella pneumoniae, SIKPNO30, alone
E. coli BAS 1 = experiment: Broth microdilution MIC (strain enzymes: none detected); details: Escherichia coli, BAS1, alone
K. pneumoniae ESBL 7 #1 = experiment: Broth microdilution MIC (strain enzymes: SHV-12, TEM-1); details: Klebsiella pneumoniae, alone
K. pneumoniae 153239 = experiment: Broth microdilution MIC (strain enzymes: SHV-11, TEM-1); details: Klebsiella pneumoniae, 153239, alone
K. oxytoca 496 #2 = experiment: Broth microdilution MIC (strain enzymes: SHV-105, TEM-1); details: Klebsiella oxytoca, alone
K. oxytoca 176877 = experiment: Broth microdilution MIC (strain enzymes: SHV-105); details: Klebsiella oxytoca, 176877, alone
K. pneumoniae 304487 = experiment: Broth microdilution MIC (strain enzymes: SHV-12,TEM-1); details: Klebsiella pneumoniae, 304487, alone
K. oxytoca 169219 = experiment: Broth microdilution MIC (strain enzymes: TEM-1, CTXM-15); details: Klebsiella oxytoca, 169219, alone
E. coli 3327 = experiment: Broth microdilution MIC (strain enzymes: TEM-1, SHV-12); details: Escherichia coli, 3327, alone
K. pneumoniae 170375 = experiment: Broth microdilution MIC (strain enzymes: SHV-12, CTX-M15 and TEM-1); details: Klebsiella pneumoniae, 170375, alone
[2] = read-out: MIC of cefdinir (CDR)
[3] = read-out: MIC of cefixime (CFM)

C=CC1=C(C(=O)O)N2C(=O)[C@@H](NC(=O)/C(=N\O)c3csc(N)n3)[C@H]2SC1 [Cefdinir, cefdinir, reference compound]
MIC (K. pneumoniae KP 4; [2]): 8 µg/mL
MIC (E. coli SI-V502; [2]): 2 µg/mL
MIC (K. pneumoniae 329633; [2]): 16 µg/mL
MIC (E. coli 1924; [2]): 2 µg/mL
MIC (K. pneumoniae KP 8; [2]): 0.5 µg/mL
MIC (E. coli SI-PBLII; [2]): 2 µg/mL
MIC (E. coli ESBL 5; [2]): > 32 µg/mL
MIC (E. coli SI-LP377; SILP377, read-out: MIC of cefdinir (CDR)): > 32 µg/mL
MIC (E. coli 25922; [2]): 0.5 µg/mL
MIC (K. pneumoniae 11/23 LF#2; [2]): 2 µg/mL
MIC (K. pneumoniae KI (KCl); [2]): 1 µg/mL
MIC (E. coli 2806; [2]): 4 µg/mL
MIC (E. coli Si-FDL-GES; [2]): > 32 µg/mL
MIC (E. coli 3174; [2]): 1 µg/mL
MIC (K. pneumoniae ESBL 8 #2; [2]): 16 µg/mL
MIC (E. coli SI-M004; [2]): 32 µg/mL
MIC (K. pneumoniae ESBL 8 #1; [2]): 16 µg/mL
MIC (K. pneumoniae ESBL 10; [2]): 16 µg/mL
MIC (E. coli SI-NO36; [2]): 4 µg/mL
MIC (K. pneumoniae ESBL 7 #2; [2]): > 32 µg/mL
MIC (K. pneumoniae BAA 1705; [2]): > 32 µg/mL
MIC (E. coli ESBL 4; [2]): > 32 µg/mL
MIC (E. coli SI-AIRT-4; [2]): 0.25 µg/mL
MIC (K. pneumoniae 3151; [2]): > 32 µg/mL
MIC (E. coli ESBL 2; [2]): > 32 µg/mL
MIC (K. pneumoniae 115468; [2]): 8 µg/mL
MIC50 ([1]; read-out: Cefdinir MIC50): 16 µg/mL (≈ 40.5 µM)
MIC90 ([1]; read-out: Cefdinir MIC90): > 32 µg/mL
MIC (K. pneumoniae KPN 508; [2]): 32 µg/mL
MIC (E. coli 2150; [2]): > 32 µg/mL
MIC (K. pneumoniae 319478; [2]): > 32 µg/mL
MIC (K. pneumoniae KP 3; [2]): 4 µg/mL
MIC (K. pneumoniae SI-KP NO30; [2]): 0.5 µg/mL
MIC (E. coli BAS 1; [2]): > 32 µg/mL
MIC (K. pneumoniae ESBL 7 #1; [2]): 32 µg/mL
MIC (K. pneumoniae 153239; [2]): 2 µg/mL
MIC (K. oxytoca 496 #2; [2]): 16 µg/mL
MIC (K. oxytoca 176877; [2]): 8 µg/mL
MIC (K. pneumoniae 304487; [2]): 8 µg/mL
MIC (K. oxytoca 169219; [2]): > 32 µg/mL
MIC (E. coli 3327; [2]): 16 µg/mL
MIC (K. pneumoniae 170375; [2]): > 32 µg/mL

C=CC1=C(C(=O)O)N2C(=O)[C@@H](NC(=O)/C(=N\OCC(=O)O)c3csc(N)n3)[C@H]2SC1 [Cefixime, cefixime, reference compound]
MIC (K. pneumoniae KP 4; [3]): > 32 µg/mL
MIC (E. coli SI-V502; [3]): 2 µg/mL
MIC (K. pneumoniae 329633; [3]): > 32 µg/mL
MIC (E. coli 1924; [3]): 2 µg/mL
MIC (K. pneumoniae KP 8; [3]): > 32 µg/mL
MIC (E. coli SI-PBLII; [3]): 1 µg/mL
MIC (E. coli ESBL 5; [3]): > 32 µg/mL
MIC (E. coli SI-LP377; SILP377, read-out: MIC of cefixime (CFM)): > 32 µg/mL
MIC (E. coli 25922; [3]): 1 µg/mL
MIC (K. pneumoniae 11/23 LF#2; [3]): > 32 µg/mL
MIC (K. pneumoniae KI (KCl); [3]): 32 µg/mL
MIC (E. coli 2806; [3]): 32 µg/mL
MIC (E. coli Si-FDL-GES; [3]): 2 µg/mL
MIC (E. coli 3174; [3]): 0.5 µg/mL
MIC (K. pneumoniae ESBL 8 #2; [3]): > 32 µg/mL
MIC (E. coli SI-M004; [3]): > 32 µg/mL
MIC (K. pneumoniae ESBL 8 #1; [3]): > 32 µg/mL
MIC (K. pneumoniae ESBL 10; [3]): > 32 µg/mL
MIC (E. coli SI-NO36; [3]): 1 µg/mL
MIC (K. pneumoniae ESBL 7 #2; [3]): > 32 µg/mL
MIC (K. pneumoniae BAA 1705; [3]): > 32 µg/mL
MIC (E. coli ESBL 4; [3]): > 32 µg/mL
MIC (E. coli SI-AIRT-4; [3]): 0.5 µg/mL
MIC (K. pneumoniae 3151; [3]): > 32 µg/mL
MIC (E. coli ESBL 2; [3]): > 32 µg/mL
MIC (K. pneumoniae 115468; [3]): > 32 µg/mL
MIC50 ([1]; read-out: Cefixime MIC50): > 32 µg/mL
MIC90 ([1]; read-out: Cefixime MIC90): > 32 µg/mL
MIC (K. pneumoniae KPN 508; [3]): > 32 µg/mL
MIC (E. coli 2150; [3]): > 32 µg/mL
MIC (K. pneumoniae 319478; [3]): > 32 µg/mL
MIC (K. pneumoniae KP 3; [3]): > 32 µg/mL
MIC (K. pneumoniae SI-KP NO30; [3]): > 32 µg/mL
MIC (E. coli BAS 1; [3]): > 32 µg/mL
MIC (K. pneumoniae ESBL 7 #1; [3]): > 32 µg/mL
MIC (K. pneumoniae 153239; [3]): 0.5 µg/mL
MIC (K. oxytoca 496 #2; [3]): 32 µg/mL
MIC (K. oxytoca 176877; [3]): > 32 µg/mL
MIC (K. pneumoniae 304487; [3]): > 32 µg/mL
MIC (K. oxytoca 169219; [3]): > 32 µg/mL
MIC (E. coli 3327; [3]): > 32 µg/mL
MIC (K. pneumoniae 170375; [3]): > 32 µg/mL
